Source: patent publication US7279302B2, “Methods for identifying herbicidal compounds” (Bayer CropScience S.A., priority 2000, dated 2007)

Assays:
Format in all cases: biochemical
[1] = target: T1, TyrA-ATc arogenate dehydrogenase (Arabidopsis thaliana, UniProt Q944B6, V36M); assay: arogenate dehydrogenase activity, spectrophotometric monitoring at 340 nm, recombinant TyrA-ATc; conditions: for Michaelis constant: TyrA-Atc, Km for substrate/cofactor; for inhibition of arogenate dehydrogenase activity: TyrA-ATc, 1 mM
T1 construct: introduces an ATG initiating codon and an Nde I restriction site (underlined) at position 174 from the first ATG codon (V58M); made in house; host or cells: Escherichia coli AT2471 (pET21a(+)), soluble crude extract
T1 sequence (Q944B6 36-640 V36M): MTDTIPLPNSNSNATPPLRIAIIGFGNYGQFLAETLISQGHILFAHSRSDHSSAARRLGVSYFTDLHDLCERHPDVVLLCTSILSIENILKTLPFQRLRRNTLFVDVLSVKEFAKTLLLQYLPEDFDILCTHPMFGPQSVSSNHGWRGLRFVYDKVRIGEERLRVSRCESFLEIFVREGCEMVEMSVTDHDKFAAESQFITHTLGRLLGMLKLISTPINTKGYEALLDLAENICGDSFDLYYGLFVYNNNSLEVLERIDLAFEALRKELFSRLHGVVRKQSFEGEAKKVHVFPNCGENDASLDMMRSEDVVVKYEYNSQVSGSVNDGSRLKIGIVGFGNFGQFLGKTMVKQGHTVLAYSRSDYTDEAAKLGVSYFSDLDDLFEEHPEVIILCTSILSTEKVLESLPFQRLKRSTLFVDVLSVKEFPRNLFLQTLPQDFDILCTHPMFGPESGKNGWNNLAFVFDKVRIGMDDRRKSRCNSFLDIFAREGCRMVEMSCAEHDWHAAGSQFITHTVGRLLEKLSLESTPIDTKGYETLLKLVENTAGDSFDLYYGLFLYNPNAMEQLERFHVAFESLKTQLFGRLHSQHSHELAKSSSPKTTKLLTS
Procedure: (§1) The arogenate dehydrogenase activity is measured at 25° C. by spectrophotometric monitoring, at 340 nm, of the formation of NADH or NADPH in a solution containing 50 mM of Tris-HCl, pH 8.6, 300 μm of arogenate and 1 mM of NAD or […] in a total volume of 200 μl.
(§2) Eshcerichia coli AT2471 cells were transformed with each one of the plasmids pET21-TyrA-AT obtained in example 3, and then cultured at 37° C. in 2 liters of Luria-Bertani medium supplemented with 100 μg/ml of carbenicillin. When the culture had reached the equivalent of an absorbance at 600 nm (A600) of 0.6, 1 mM of isopropyl-β-D-thiogalactoside was added to the culture medium in order to induce recombinant protein synthesis. The cells were then cultured for 16 h at 28° C., harvested, and then centrifuged for 20 min at 40 000 g. The pellet was then resuspended in a 50 mM Tris-HC1 buffer, pH 7.5, containing 1 mM EDTA, 1 mM dithiothreitol, 1 mM benzamidine HCl and 5 mM aminocaproic acid, and then sonicated (100 pulses every 3 seconds at power 5) with a Vibra-Cell disrupter (Sonics and Materials, Danbury, Conn., USA). The crude extracts thus obtained were then centrifuged for 20 min at 40 000 g, and the supernatants were used directly for the enzyme assays.
(§3) The biochemical characterization of the recombinant arogenate dehydrogenase enzymes was carried out using the soluble protein extracts of the transformed E. coli strains. The arogenate dehydrogenase activity was measured according to the method described in example 4. […] No arogenate dehydrogenase activity was detected in the presence of NAD, and no prephenate dehydrogenase activity was detected whatever the cofactor used (NADP or NAD) and whatever the protein tested (TyrA-ATc, TyrA-AT1 or TyrA-AT2). […] Each one of these enzymes has a Michaelis-Menten-type behavior, and their Km value for arogenate and NADP is relatively the same (FIGS. 2 and 3). The Michaelis constants for NADP are, respectively, 40 μM for TyrA-Atc, 60 μM for TyrA-AT1, and 20 μM for TyrA-AT2. The Michaelis constants for arogenate are, respectively, 70 μM for TyrA-Atc, 45 μM for TyrA-AT1, and 45 μM for TyrA-AT2. In addition, like the other plant arogenate dehydrogenases (Byng et al., 1981, Phytochemistry 6, 1289-1292; Connelly and Conn, 1986, Z. Naturforsch 41c, 69-78; Gaines et al., 1982 Planta 156, 233-240), the Arabidopsis arogenate dehydrogenases are all very sensitive to tyrosine, the product of the enzyme reaction, and insensitive to 1 mM of phenylalanine and 1 mM of p-hydroxyphenylpyruvate.

[2] = target: T2, TyrA-AT1 arogenate dehydrogenase (Arabidopsis thaliana, UniProt Q944B6); assay: arogenate dehydrogenase activity, spectrophotometric monitoring at 340 nm, recombinant TyrA-AT1; conditions: for Michaelis constant: Km for substrate/cofactor; for inhibition of arogenate dehydrogenase activity: 1 mM
T2 construct: recombinant proteins were observed only with the constructs encoding the proteins M58-TyrA-Atc and M58-TyrA-AT1; made in house; host or cells: Escherichia coli AT2471 (pET21a(+)), soluble crude extract
T2 sequence (Q944B6 with tags, fused parts or gaps): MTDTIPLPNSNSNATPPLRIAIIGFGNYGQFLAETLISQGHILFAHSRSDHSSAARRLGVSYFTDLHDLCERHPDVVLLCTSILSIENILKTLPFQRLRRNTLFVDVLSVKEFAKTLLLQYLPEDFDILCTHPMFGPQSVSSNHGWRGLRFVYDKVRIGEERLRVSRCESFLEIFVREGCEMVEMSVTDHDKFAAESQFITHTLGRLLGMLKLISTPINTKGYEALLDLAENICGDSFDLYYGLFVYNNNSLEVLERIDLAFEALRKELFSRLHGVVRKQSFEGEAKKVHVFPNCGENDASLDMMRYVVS
Procedure: as §1, §2, §3

[3] = target: T3, TyrA-AT2 arogenate dehydrogenase (Arabidopsis thaliana, UniProt Q944B6); assay: arogenate dehydrogenase activity, spectrophotometric monitoring at 340 nm, recombinant TyrA-AT2; conditions: for Michaelis constant: Km for substrate/cofactor; for inhibition of arogenate dehydrogenase activity: 1 mM
T3 construct: at the ATG codon of the second open reading frame (at position 1081 from the first ATG codon); made in house; host or cells: Escherichia coli AT2471 (pET21a(+)), soluble crude extract
T3 sequence (Q944B6 339-640): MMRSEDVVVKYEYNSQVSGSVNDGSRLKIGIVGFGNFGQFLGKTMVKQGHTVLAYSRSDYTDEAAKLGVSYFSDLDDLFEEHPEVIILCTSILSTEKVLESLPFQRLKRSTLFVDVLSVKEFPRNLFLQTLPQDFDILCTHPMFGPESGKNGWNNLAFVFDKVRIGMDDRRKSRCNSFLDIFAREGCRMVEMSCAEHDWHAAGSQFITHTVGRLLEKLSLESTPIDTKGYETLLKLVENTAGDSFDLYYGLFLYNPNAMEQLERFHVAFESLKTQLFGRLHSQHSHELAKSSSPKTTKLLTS
Procedure: as §1, §2, §3

[4] = tested on: Synechocystis arogenate dehydrogenase; assay: arogenate dehydrogenase activity, spectrophotometric monitoring at 340 nm, recombinant Synechocystis enzyme; conditions: for Michaelis constant: Km for substrate/cofactor
Procedure: as §1, §2
The sequence of the gene encoding the A. thaliana arogenate dehyrogenase identified in example 1 (TyrA) made it possible to identify an arogenate dehydrogenase gene in the bacterium Synechocystis (accession number: 1652956). This gene was originally described as encoding a “prephenate dehydrogenase” enzyme. It was isolated from a Synechocystis genomic library and the enzyme was produced in the same way as the A. thaliana enzyme, according to the protocol described in example 5 . […] The arogenate dehydrogenase activity was measured according to the method described in example 4 . […] No arogenate dehydrogenase activity was detected in the presence of NAD, and no prephenate dehydrogenase activity was detected whatever the cofactor used (NADP or NAD). […]

[5] = target: T4, TyrA-ATc arogenate dehydrogenase (Arabidopsis thaliana, UniProt Q944B6); assay: arogenate dehydrogenase activity, spectrophotometric monitoring at 340 nm, recombinant TyrA-ATc; conditions: TyrA-Atc; inhibition competitive with respect to arogenate
T4 construct: introduces an ATG initiating codon and an Nde I restriction site (underlined) at position 174 from the first ATG codon (V58M); made in house; host or cells: Escherichia coli AT2471 (pET21a(+)), soluble crude extract
T4 sequence (Q944B6 36-640 V36M): as the sequence (Q944B6 36-640 V36M) above
Procedure: as §1, §2, §3

[6] = inhibition competitive with respect to arogenate

NC(=O)c1ccc[n+]([C@@H]2O[C@H](COP(=O)([O-])OP(=O)(O)OC[C@H]3O[C@@H](n4cnc5c(N)ncnc54)[C@H](OP(=O)(O)O)[C@@H]3O)[C@@H](O)[C@H]2O)c1 [NADP]
Michaelis constant [1]: 40 µM | Michaelis constant [2]: 60 µM | Michaelis constant [3]: 20 µM | Michaelis constant [4]: 6 µM

N[C@@H](CC1(C(=O)O)C=CC(O)C=C1)C(=O)O (stereo partly drawn) [arogenate]
Michaelis constant [1]: 70 µM | Michaelis constant [2]: 45 µM | Michaelis constant [3]: 45 µM | Michaelis constant [4]: 107 µM

O=C(O)C(=O)Cc1ccc(O)cc1 [p-hydroxyphenylpyruvate]
inhibition of arogenate dehydrogenase activity [1]: insensitive | inhibition of arogenate dehydrogenase activity [2]: insensitive | inhibition of arogenate dehydrogenase activity [3]: insensitive

N[C@@H](Cc1ccccc1)C(=O)O [phenylalanine]
inhibition of arogenate dehydrogenase activity [1]: insensitive | inhibition of arogenate dehydrogenase activity [2]: insensitive | inhibition of arogenate dehydrogenase activity [3]: insensitive

O=C(O)C(=O)CC1(C(=O)O)C=CC(O)C=C1 (stereo not drawn) [prephenate]
inhibition of arogenate dehydrogenase activity [1]: does not inhibit | inhibition of arogenate dehydrogenase activity [2]: does not inhibit | inhibition of arogenate dehydrogenase activity [3]: does not inhibit | inhibition of arogenate dehydrogenase activity ([4]; 1 mM): does not inhibit

N[C@@H](Cc1ccc(O)cc1)C(=O)O [tyrosine]
Ki [5]: 14 µM | Ki [2, 6]: 8 µM | Ki [3, 6]: 12 µM
